Reference: patent US11013702B2, “Midodrine hydrochloride oral solution and uses thereof” (Vertice Pharma, LLC, priority 2017, dated 2021)

Assay: Solubility of midodrine hydrochloride in various solvents and pH values
Type: physicochemical

Measured: solubility

COc1ccc(OC)c(C(O)CNC(=O)CN)c1.Cl (stereo not drawn) [Midodrine Hydrochloride, 2-amino-N-[2-(2,5-dimethoxyphenyl) -2-hydroxyethyl]acetamide hydrochloride]
> 10000 µg/mL: 0.01N hydrochloric acid, simulated gastric fluid | 0.1N hydrochloric acid, simulated gastric fluid | Simulated Gastric Fluid (SGF) pH 1.25 | aqueous buffer, Potassium Phosphate Buffer, pH 6.0 | potassium phosphate buffer, pH 2.5, aqueous buffer | potassium phosphate buffer, pH 3.5, aqueous buffer | potassium phosphate buffer, pH 4.5, aqueous buffer | potassium phosphate buffer, pH 5.5, aqueous buffer | potassium phosphate buffer, pH 6.8, aqueous buffer | potassium phosphate buffer, pH 7.2, aqueous buffer | potassium phosphate buffer, pH 7.5, aqueous buffer | water
